Assay results reported in patent US7666834B2, “Macrocyclic inhibitors of hepatitis C virus” (Tibotec Pharmaceuticals Ltd., priority 2005, dated 2010).
Like-named read-outs stand apart in the source and are kept apart here.

What was measured:
[1] = rcm bond, DCE
[2] = rcm bond; 14-membered ring; Hoveyda-Grubbs II (25 mol%); DCE; 1.46 mM; 150.0 °C
HCV = details: sustained administration; mutations D168V, D168A and/or A156S; cited from earlier work
[3] = system: HCV replicons (NS3-NS5B regions of HCV type 1b) in Huh-7 luc/neo cells; experiment: Replicon assay (Huh-Luc cells, luciferase readout); assay type: cell-based; details: Hepatitis C virus, Huh-7, 72 h, three days incubation, luciferase activity
Text: It will be appreciated that it is important to distinguish between compounds that specifically interfere with HCV functions from those that exert cytotoxic or cytostatic effects in the HCV replicon model, and as a consequence cause a decrease in HCV RNA or linked reporter enzyme concentration. Assays are known in the field for the evaluation of cellular cytotoxicity based for example on the activity of mitochondrial enzymes using fluorogenic redox dyes such as resazurin. Furthermore, cellular counter screens exist for the evaluation of non-selective inhibition of linked reporter gene activity, such as firefly luciferase.
The compounds of formula (I) were examined for activity in the inhibition of HCV RNA replication in a cellular assay. […] The cellular assay was based on a bicistronic expression construct, as described by Lohmann et al. (1999) Science vol. […]
The replicon cells were plated in 384 well plates in the presence of the test and control compounds which were added in various concentrations. Following an incubation of three days, HCV replication was measured by assaying luciferase activity (using standard luciferase assay substrates and reagents and a Perkin Elmer ViewLux™ ultraHTS microplate imager). […] The inhibitory activity of the compound on luciferase activity was monitored on the Huh-Luc cells, enabling a dose-response curve for each test compound.

HCV NS3/4A protease = HCV NS3/4A protease (Hepatitis C virus genotype 1a, UniProt P27958); experiment: biochemical; details: full-length NS3 protease 1 nM, 25 μM NS4A cofactor, competitive inhibition model; read-out: Ki (nM) Enzymatic assay
Description: [Landro, 1997 #Biochem 36 9340-9348]. […] The solutions were stored at −20° C. between measurements.

CCOC(=O)C12CC1C=CCCCCCN(Cc1ccc(OC)cc1)C(=O)N1CC(O[Si](C)(C)C(C)(C)C)CC1C(=O)N2 (centres unmarked)
ring closure, isolated yield ([1]; from C=CCCCCCN(Cc1ccc(OC)cc1)C(=O)N1CC(O[Si](C)(C)C(C)(C)C)CC1C(=O)NC1(C(=O)OCC)CC1C=C, 15-membered ring, Hoveyda-Grubbs II (10 mol%), 1.6 mM): 48%

CN1CCCCC=CC2CC2(C(=O)NS(=O)(=O)C2CC2)NC(=O)C2CC(O)CC2C1=O (centres unmarked)
ring closure, isolated yield ([1]; 14-membered ring, Hoveyda-Grubbs II (15 mol%), 2.07 mM): 77%

CN1CCCCC=CC2CC2(C(=O)NS(=O)(=O)C2CC2)NC(=O)C2CC(OC(=O)Nc3ccccc3N3CCCCC3)CC2C1=O (centres unmarked)
ring closure, yield after HPLC [2]: 36%

COc1ccc2c(O[C@@H]3C[C@H]4C(=O)N[C@]5(C(=O)O)C[C@H]5/C=C\CCCCC[C@H](NC(=O)OC5CCCC5)C(=O)N4C3)cc(-c3csc(NC(C)C)n3)nc2c1 [BILN-2061]
selection of drug escape mutants (HCV): selects HCV mutants which are resistant to the respective drug

CN1CCCC/C=C\[C@@H]2C[C@@]2(C(=O)NS(=O)(=O)C2CC2)NC(=O)[C@@H]2C[C@@H](OC(=O)Nc3ccccc3F)C[C@H]2C1=O [Compound 25, (2-Fluorophenyl)carbamic acid 4-cyclopropanesulfonyl-aminocarbonyl-13-methyl-2,14-dioxo-3,13-diazatricyclo[13.3.0.0^4,6]octadec-7-en-17-yl ester]
EC50 [3]: 8.4 µM | Ki (HCV NS3/4A protease): 51 nM

CCOC(=O)c1ccccc1NC(=O)O[C@@H]1C[C@H]2C(=O)N[C@]3(C(=O)NS(=O)(=O)C4CC4)C[C@H]3/C=C\CCCCN(C)C(=O)[C@@H]2C1 [Compound 26, 2-(4-Cyclopropanesulfonylaminocarbonyl-13-methyl-2,14-dioxo-3,13-diaza-tricyclo-[13.3.0.0^4,6]octadec-7-en-17-yloxycarbonylamino)-benzoic acid ethyl ester]
EC50 [3]: 0.0492 µM

CCC[C@H](NC(=O)[C@@H]1[C@H]2CCC[C@H]2CN1C(=O)[C@@H](NC(=O)[C@@H](NC(=O)c1cnccn1)C1CCCCC1)C(C)(C)C)C(=O)C(=O)NC1CC1 [VX-950]
selection of drug escape mutants (HCV): selects HCV mutants which are resistant to the respective drug
